Laboratory results reported in patent publication US9718816B2, “1-phenoxy-3-(alkylamino)-propan-2-ol derivatives as CARM1 inhibitors and uses thereof” (Epizyme, Inc., priority 2013, dated 2017).

Target: T1, CARM1 (Homo sapiens, UniProt Q86X55)
T1 construct: Flag-CARM1-His; made in house; host or cells: HEK 293F cells infected with recombinant baculovirus (pFastBacMam)
T1 sequence (Q86X55 1-585 isoform Q86X55-1): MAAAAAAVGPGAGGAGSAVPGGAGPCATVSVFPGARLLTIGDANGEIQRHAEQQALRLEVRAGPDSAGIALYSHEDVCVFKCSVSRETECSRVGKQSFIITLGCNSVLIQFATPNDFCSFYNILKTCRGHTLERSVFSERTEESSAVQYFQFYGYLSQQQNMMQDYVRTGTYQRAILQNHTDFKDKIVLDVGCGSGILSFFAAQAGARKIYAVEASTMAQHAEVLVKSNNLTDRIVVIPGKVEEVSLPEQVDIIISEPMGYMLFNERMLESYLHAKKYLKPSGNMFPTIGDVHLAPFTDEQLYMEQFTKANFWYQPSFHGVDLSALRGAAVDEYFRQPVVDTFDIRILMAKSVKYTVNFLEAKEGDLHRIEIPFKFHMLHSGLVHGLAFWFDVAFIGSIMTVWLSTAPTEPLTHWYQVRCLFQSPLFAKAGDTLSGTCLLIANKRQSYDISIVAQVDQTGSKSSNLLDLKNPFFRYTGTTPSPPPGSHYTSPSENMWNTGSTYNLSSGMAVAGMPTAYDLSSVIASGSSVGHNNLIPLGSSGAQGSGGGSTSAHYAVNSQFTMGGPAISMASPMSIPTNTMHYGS
Assay: CARM1 enzyme assay on peptide substrate (3H-SAM Flashplate)
Type: biochemical
Settings: CARM1 0.25 nM, 3H-SAM 30 nM, peptide 250 nM, 30 min preincubation; read-out: Biochem IC50
Excerpt: S-adenosylmethionine (SAM), S-adenosylhomocysteine (SAH), bicine, Tween20, dimethylsulfoxide (DMSO), bovine skin gelatin (BSG), sodium butyrate and Tris(2-carboxyethyl)phosphine hydrochloride solution (TCEP) were purchased from Sigma-Aldrich at the highest level of purity possible. ^3H-SAM was purchase from American Radiolabeled Chemicals with a specific activity of 80 Ci/mmol. 384-well streptavidin Flashplates were purchased from PerkinElmer.
Peptide representative of human histone H3 residues 16-30 was synthesized with an N-terminal linker-affinity tag motif and a C-terminal amide cap by 21^St Century Biochemicals. The peptide was purified by high-performance liquid chromatography (HPLC) to greater than 95% purity and confirmed by liquid chromatography mass spectrometry (LC-MS). The sequence was Biot-Ahx-[…]-amide and contained a monomethylated arginine at position 26 (SEQ ID NO.:1).
Human CARM1 (PRMT4) (NM_199141.1) transcript clone was amplified from an HEK 293 cDNA library, incorporating a flanking 5′ sequence encoding a FLAG tag ([…]) (SEQ ID NO.:2) fused directly to Ala 2 of CARM1 and 3′ sequence encoding a hexa His sequence ([…]) (SEQ ID NO.:3) fused directly to Ser 608. The gene sequence encoding isoform1 containing a deletion of amino acids 539-561 was amplified subsequently and subcloned into pFastBacMam (Viva Biotech). Protein Expression
Recombinant baculovirus were generated according to Bac-to-Bac kit instructions (Life Technologies). Protein over-expression was accomplished by infecting exponentially growing HEK 293F cell culture at 1.3×10^6 cell/ml with virus (MOI=10) in the presence of 8 mM sodium butyrate. Infections were carried out at 37° C. for 48 hours, harvested by centrifugation, and stored at −80° C. for purification.
Column was washed with 500 mM NaCl in buffer A and Flag-CARM1-His was eluted with 200 ug/ml FLAG peptide in buffer A. Pooled fractions were dialyzed in 20 mM Tris, 150 mM NaCl, 5% glycerol and 1 mM DTT, pH 7.8. The purity of recovered protein was 94.
General Procedure for CARM1 Enzyme Assays on Peptide Substrates
The assays were all performed in a buffer consisting of 20 mM Bicine (pH=7.6), 1 mM TCEP, 0.005% BSG, and 0.002% Tween 20, prepared on the day of use. Compounds in 100% DMSO (1 ul) were spotted into a polypropylene 384-well V-bottom plates (Greiner) using a Platemate Plus outfitted with a 384-channel head (Thermo Scientific). DMSO (1 ul) was added to Columns 11, 12, 23, 24, rows A-H for the maximum signal control and 1 ul of SAH, a known product and inhibitor of CARM1, was added to columns 11, 12, 23, 24, rows I-P for the minimum signal control. A cocktail (40 ul) containing the CARM1 enzyme was added by Multidrop Combi (Thermo-Fisher). The compounds were allowed to incubate with CARM1 for 30 min at room temperature, then a cocktail (10 ul) containing ^3H-SAM and peptide was added to initiate the reaction (final volume=51 ul). The final concentrations of the components were as follows: CARM1 was 0.25 nM, ^3H-SAM was 30 nM, peptide was 250 nM, SAH in the minimum signal control wells was 1 mM, and the DMSO concentration was 2%. The assays were stopped by the addition of non-radiolabeled SAM (10 ul) to a final concentration of 300 uM, which dilutes the ^3H-SAM to a level where its incorporation into the peptide substrate is no longer detectable. 50 ul of the reaction in the 384-well polypropylene plate was then transferred to a 384-well Flashplate and the biotinylated peptides were allowed to bind to the streptavidin surface for at least 1 hour before being washed once with 0.1% Tween20 in a Biotek ELx405 plate washer. The plates were then read in a PerkinElmer TopCount plate reader to measure the quantity of ^3H-labeled peptide bound to the Flashplate surface, measured as disintegrations per minute (dpm) or alternatively, referred to as counts per minute (cpm). […]

Row | IC50 [nM] | SMILES
1 | < 100 | CNCC(O)COc1cccc(-c2cc(NC(=O)NC3CCOCC3)c3cnn(C(C)C)c3n2)c1 (stereo not shown) [Example 2-1]
2 | < 100 | CC(C)n1ncc2c(N3CCOCC3)cc(-c3cccc(OCC(O)CN)c3)nc21 (stereo not shown) [Example 3-1]
3 | 1000 to 3000 | CNCC(O)COc1cccc(-c2cc(N)c3cnn(C(C)C)c3n2)c1 (stereo not shown) [Example 4-1]
4 | 100 to 1000 | CNCC(O)COc1cccc(-c2cc(NC)c3cnn(C(C)C)c3n2)c1 (stereo not shown) [Example 5-1]
5 | 100 to 1000 | CC(C)n1ncc2c(NC3CC3)cc(-c3cccc(OCC(O)CN)c3)nc21 (stereo not shown) [Example 6-1]
6 | 100 to 1000 | CNCC(O)COc1cccc(-c2cc(NC3CC3)c3cnn(C(C)C)c3n2)c1 (stereo not shown) [Example 7-1]
7 | 100 to 1000 | CNC(=O)Nc1cc(-c2cccc(OCC(O)CN)c2)nc2c1cnn2C(C)C (stereo not shown) [Example 8-1]
8 | 100 to 1000 | CNCC(O)COc1cccc(-c2cc(NCCN)c3cnn(C(C)C)c3n2)c1 (stereo not shown) [Example 9-1]
9 | 100 to 1000 | COC(=O)Nc1cc(-c2cccc(OCC(O)CN)c2)nc2c1cnn2C(C)C (stereo not shown) [Example 10-1]
10 | 100 to 1000 | CC(C)n1ncc2c(N3CCOCC3)cc(-c3cccc(OCC(O)CN)c3)nc21 (stereo not shown) [Example 11-1]
11 | 100 to 1000 | CC(C)n1ncc2c(N3CCOCC3)cc(-c3cccc(OC[C@@H](O)CN)c3)nc21 [Example 12-1]
12 | < 100 | CNCC(O)COc1cccc(-c2cc(NC(=O)NC)c3cnn(C(C)C)c3n2)c1 (stereo not shown) [Example 13-1]
13 | 100 to 1000 | CC(C)n1ncc2c(NC(=O)N(C)C)cc(-c3cccc(OCC(O)CN)c3)nc21 (stereo not shown) [Example 14-1]
14 | 100 to 1000 | CNCC(O)COc1cccc(-c2cc(NCCCN)c3cnn(C(C)C)c3n2)c1 (stereo not shown) [Example 15-1]
15 | 100 to 1000 | CNCC(O)COc1cccc(-c2cc(NC(=O)OC)c3cnn(C(C)C)c3n2)c1 (stereo not shown) [Example 16-1]
16 | 100 to 1000 | CCOC(=O)Nc1cc(-c2cccc(OCC(O)CN)c2)nc2c1cnn2C(C)C (stereo not shown) [Example 17-1]
17 | 100 to 1000 | COC(=O)CNc1cc(-c2cccc(OCC(O)CN)c2)nc2c1cnn2C(C)C (stereo not shown) [Example 18-1]
18 | 100 to 1000 | CC(C)n1ncc2c(NC3CCOCC3)cc(-c3cccc(OCC(O)CN)c3)nc21 (stereo not shown) [Example 19-1]
19 | < 100 | CNCC(O)COc1cccc(-c2cc(N3CCOCC3)c3cnn(C(C)C)c3n2)c1 (stereo not shown) [Example 20-1]
20 | 100 to 1000 | CNCC(O)COc1cccc(-c2cc(NC(=O)N(C)C)c3cnn(C(C)C)c3n2)c1 (stereo not shown) [Example 21-1]
21 | < 100 | CNCC(O)COc1cccc(-c2cc(NCCCCN)c3cnn(C(C)C)c3n2)c1 (stereo not shown) [Example 22-1]
22 | 100 to 1000 | CNCC(O)COc1cccc(-c2cc(NCC(=O)OC)c3cnn(C(C)C)c3n2)c1 (stereo not shown) [Example 23-1]
23 | 100 to 1000 | CNCC(O)COc1cccc(-c2cc(Nc3ccccn3)c3cnn(C(C)C)c3n2)c1 (stereo not shown) [Example 24-1]
24 | 3000 to 10000 | CC(C)n1ncc2c(NCc3cccnc3)cc(-c3cccc(OCC(O)CN)c3)nc21 (stereo not shown) [Example 25-1]
25 | < 100 | CC(C)n1ncc2c(NCc3ccncc3)cc(-c3cccc(OCC(O)CN)c3)nc21 (stereo not shown) [Example 26-1]
26 | < 100 | CNCC(O)COc1cccc(-c2cc(NCc3nnn[nH]3)c3cnn(C(C)C)c3n2)c1 (stereo not shown) [Example 27-1]

Row | IC50 [nM] | SMILES
27 | 100 to 1000 | CC(C)n1ncc2c(N(C)C3CCOCC3)cc(-c3cccc(OCC(O)CN)c3)nc21 (stereo not shown) [Example 28-1]
28 | 3000 to 10000 | CNCC(O)COc1cccc(-c2cc(NC3CCOCC3)c3cnn(C(C)C)c3n2)c1 (stereo not shown) [Example 29-1]
29 | < 100 | CC(C)n1ncc2c(NCC3CCOCC3)cc(-c3cccc(OCC(O)CN)c3)nc21 (stereo not shown) [Example 30-1]
30 | < 100 | CCNCC(O)COc1cccc(-c2cc(N3CCOCC3)c3cnn(C(C)C)c3n2)c1 (stereo not shown) [Example 31-1]
31 | < 100 | CNCC(O)COc1cccc(-c2cc(NCCCCCN)c3cnn(C(C)C)c3n2)c1 (stereo not shown) [Example 32-1]
32 | 100 to 1000 | CNCC(O)COc1cccc(-c2cc(N(C)c3ccccn3)c3cnn(C(C)C)c3n2)c1 (stereo not shown) [Example 33-1]
33 | 100 to 1000 | CNCC(O)COc1cccc(-c2cc(NCc3ccccn3)c3cnn(C(C)C)c3n2)c1 (stereo not shown) [Example 34-1]
34 | 100 to 1000 | CC(C)n1ncc2c(NCc3cccc(O)c3)cc(-c3cccc(OCC(O)CN)c3)nc21 (stereo not shown) [Example 35-1]
35 | < 100 | CC(C)n1ncc2c(NS(=O)(=O)N(C)C)cc(-c3cccc(OCC(O)CN)c3)nc21 (stereo not shown) [Example 36-1]
36 | 3000 to 10000 | Cc1c(CNc2cc(-c3cccc(OCC(O)CN)c3)nc3c2cnn3C(C)C)cnn1C (stereo not shown) [Example 37-1]
37 | < 100 | CC(C)n1ncc2c(N[C@H]3CO[C@@H]4OCC[C@@H]43)cc(-c3cccc(OCC(O)CN)c3)nc21 (stereo partly shown) [Example 38-1]
38 | 100 to 1000 | CNCC(O)COc1cccc(-c2cc(N(C)C3CCOCC3)c3cnn(C(C)C)c3n2)c1 (stereo not shown) [Example 40-1]
39 | < 100 | CNCC(O)COc1cccc(-c2cc(NCC3CCOCC3)c3cnn(C(C)C)c3n2)c1 (stereo not shown) [Example 41-1]
40 | < 100 | CC(C)n1ncc2c(N(C)CC3CCOCC3)cc(-c3cccc(OCC(O)CN)c3)nc21 (stereo not shown) [Example 42-1]
41 | 100 to 1000 | CNCC(O)COc1cccc(-c2cc(NCCCCCCN)c3cnn(C(C)C)c3n2)c1 (stereo not shown) [Example 43-1]
42 | 100 to 1000 | CNCC(O)COc1cccc(-c2cc(N(C)Cc3ccccn3)c3cnn(C(C)C)c3n2)c1 (stereo not shown) [Example 44-1]
43 | < 100 | CNCC(O)COc1cccc(-c2cc(NS(=O)(=O)N(C)C)c3cnn(C(C)C)c3n2)c1 (stereo not shown) [Example 45-1]
44 | < 100 | CNCC(O)COc1cccc(-c2cc(NCc3cnn(C)c3C)c3cnn(C(C)C)c3n2)c1 (stereo not shown) [Example 46-1]
45 | 100 to 1000 | CNCC(O)COc1cccc(-c2cc(N[C@H]3CO[C@@H]4OCC[C@@H]43)c3cnn(C(C)C)c3n2)c1 (stereo partly shown) [Example 47-1]
46 | < 100 | CNCC(O)COc1cccc(-c2cc(N(C)CC3CCOCC3)c3cnn(C(C)C)c3n2)c1 (stereo not shown) [Example 48-1]
47 | 100 to 1000 | CC(C)n1ncc2c(NC(=O)NC3CCOCC3)cc(-c3cccc(OCC(O)CN)c3)nc21 (stereo not shown) [Example 49-1]
48 | < 100 | CC(C)n1ncc2c(NCc3cnc4ccccn34)cc(-c3cccc(OCC(O)CN)c3)nc21 (stereo not shown) [Example 50-1]
49 | < 100 | CC(C)n1ncc2c(NC(=O)OCc3ccccc3)cc(-c3cccc(OCC(O)CN)c3)nc21 (stereo not shown) [Example 51-1]
50 | < 100 | CNCC(O)COc1cccc(-c2cc(N3CCC(C(=O)OC)CC3)c3cnn(C(C)C)c3n2)c1 (stereo not shown) [Example 52-1]
51 | < 100 | CNCC(O)COc1cccc(-c2cc(NCc3cnc4ccccn34)c3cnn(C(C)C)c3n2)c1 (stereo not shown) [Example 53-1]
52 | 100 to 1000 | CNCC(O)COc1cccc(-c2cc(NC(=O)OCc3ccccc3)c3cnn(C(C)C)c3n2)c1 (stereo not shown) [Example 54-1]
